Experiments:
SK-BR-3 = assay: Growth inhibition, SRB assay, SK-BR-3; assay type: cell-based, human; conditions: Homo sapiens, SK-BR-3, 48 h
Source text: (§1) Table 2 refers to the growth inhibitory effect of COMP, olaparib and cisplatin (CDDP) in a panel of human immortalized breast (T47D, MCF-7, MDA-MB-231, MDA-MB-468, SK-BR-3 and HCC1937), ovarian and endocervical (OCVAR, SKOV-3, […],IGROV-1 and HeLa), pancreatic (PANC-1 and MIAPACA), neuroblastoma (SHSY-5Y), lung (NCI-H460), prostate (VCaP) melanoma (A375 and SK-MEL-5) and glioblastoma (SF-208) cancer cells, immortalized normal MCF10a and HFF1 human cells, and patient-derived ovarian (PD-OVCA #1, #9, #41, #49 and #62) cancer cells. […] Data are mean±SEM (n=5).
(§2) In an embodiment, IC50 values were determined by Sulforhodamine B (SRB) or MTS [3-(4,5-dimethylthiazol-2-yl)-5-(3-carboxymethoxyphenyl)-2-(4-sulfophenyl)-2H-tetrazolium] assay in immortalized and PD-OVCA cells, respectively. Cancer cells were plated in 96-well plates and incubated for 24 hours. Cells were then exposed to serial dilutions of compounds for 48 hours. The solvent DMSO corresponding to the maximum concentration used in these assays (0.025%) was included as control. Results are the mean±S.E.M. of 3-5 independent experiments.

HeLa = assay: Growth inhibition, SRB assay, HeLa; assay type: cell-based; conditions: Homo sapiens, wild-type BRCA1/2, 48 hours
Source text: as §1, §2

HCC1937 mammospheres = assay: 3D-mammosphere model; assay type: cell-based, human
Description: FIG. 5 illustrates the effect of COMP on (A-B) HCC1937 mammosphere formation after 72 hours of treatment with COMP; treatment was performed at seeding time of HCC1937 cells or at (C-D) three-day-old HCC1937 mammospheres for up to 11 days of treatment. FIG. 5A and FIG. 5C are representative images (scale bar=50 μm, 100× magnification).

MCF-7 = assay: Growth inhibition, SRB assay, MCF-7; assay type: cell-based, human; conditions: Homo sapiens, MCF7, 48 h
Source text: as §1, §2

NCI-H460 = assay: Growth inhibition, SRB assay, NCI-H460; assay type: cell-based; conditions: Homo sapiens, NCI-H460, wild-type BRCA1/2, 48 hours
Source text: as §1, §2

[1] = system: pancreatic cancer cells (PANC-1 and MIAPACA); assay: Growth inhibition, pancreatic cancer cells; assay type: cell-based; conditions: Homo sapiens, Pancreatic cancer cell, 48 hours
Description: (§3) In an embodiment, the activity of COMP compound was tested in an array of human normal and cancer cell lines (Table 2, FIG. 2).
as §1, §2

T47D = assay: Growth inhibition, SRB assay, T47D; assay type: cell-based, human; conditions: Homo sapiens, 48 h
Source text: as §1, §2

[2] = system: patient-derived ovarian cancer cells; assay: Growth inhibition, patient-derived ovarian cancer cells; assay type: cell-based; conditions: Homo sapiens; range over PD-OVCA cells; MTS, 48 hours
Description: as §3, §1, §2

A375 = assay: Growth inhibition, SRB assay, A375; assay type: cell-based; conditions: Homo sapiens, A-375, A375, wild-type BRCA1/2, 48 hours
Source text: as §1, §2

[3] = Body and organ weight of treated xenograft mice; assay type: in vivo; conditions: 2 mg/kg intraperitoneal, seven administrations; compared to vehicle
Description: FIG. 14 illustrates the in vivo antitumor activity of COMP. C57BL/6-Rag2−/−IL2rg−/− xenograft mice, carrying IGROV-1 cells, were treated with vehicle (control), or 2 mg/kg of COMP or 50 mg/kg of olaparib by intraperitoneal injection three times per week (seven administrations in total). The treatment was initiated when palpable tumors were established (^˜100 mm3). […] In FIGS. 14A-C, data are mean±SEM, n=13 animals.

SKOV-3 = assay: Growth inhibition, SRB assay, SKOV-3; assay type: cell-based, human; conditions: Homo sapiens, SK-OV-3, 48 h
Source text: as §1, §2

[4] = system: PD-OVCA#1 (Lack of exon 17 in BRCA1); assay: Growth inhibition, MTS assay, PD-OVCA#1; assay type: cell-based, human; conditions: Homo sapiens, PD-OVCA#1, pathogenic mutant BRCA1/2, 48 hours
Source text: as §1, §2

[5] = system: triple-negative breast cancer and ovarian cancer cells; assay: ROS generation (H2DCFDA flow cytometry); assay type: cell-based, human; conditions: 6 and 12 μM, 48 hours
Description: (§4) Cell cycle phases were analysed by flow cytometry using propidium iodide (PI) and quantified using the FlowJo software. Apoptosis and ROS were analysed by flow cytometry using FITC-Annexin V/PI and 2′,7′-dichlorodihydrofluorescein diacetate (H2DCFDA) respectively.

[6] = system: triple-negative breast cancer and ovarian cancer cells; assay: Apoptosis by flow cytometry (FITC-Annexin V/PI); assay type: cell-based, human; conditions: 6 and 12 μM, 48 hours
Description: as §4

[7] = system: triple-negative breast cancer and ovarian cancer cells; assay: Cell cycle progression by flow cytometry (propidium iodide); assay type: cell-based, human; conditions: MDA-MB-231 cells, 6 and 12 μM, 48 hours
Description: as §4
In an embodiment, the COMP compound modulated the expression of key proteins involved in homologous DNA repair, proliferation, chemoresistance, induced cell cycle arrest, apoptosis and ROS generation, in triple-negative breast cancer and ovarian cancer cells.

MiaPACA = assay: Growth inhibition, SRB assay, MiaPACA; assay type: cell-based; conditions: Homo sapiens, MIA PaCa-2, wild-type BRCA1/2, 48 hours
Source text: as §1, §2

Vcap = assay: Growth inhibition, SRB assay, Vcap; assay type: cell-based; conditions: Homo sapiens, wild-type BRCA1/2, 48 hours
Source text: as §1, §2

SK-MEL-5 = assay: Growth inhibition, SRB assay, SK-MEL-5; assay type: cell-based; conditions: Homo sapiens, SK-MEL-5, wild-type BRCA1/2, 48 hours
Source text: as §1, §2

MDA-MB-231 = assay: Growth inhibition, SRB assay, MDA-MB-231; assay type: cell-based, human; conditions: Homo sapiens, MDA-MB-231, 48 h
Source text: as §1, §2

[8] = system: ovarian and endocervical cancer cells (OCVAR, SKOV-3, SK-BR-3, IGROV-1 and HeLa); assay: Growth inhibition, panel of ovarian and endocervical cancer cells; assay type: cell-based; conditions: Homo sapiens, range over OCVAR, 48 hours
Description: as §3, §1, §2

With CC[C@H]1CN(C)C2Cc3c([nH]c4ccccc34)/C(=N/Nc3ccc(Br)cn3)C[C@@H]1[C@@H]2C(=O)OC [COMP, methyl (5R,6S,14S,E)-8-(2-(5-bromopyridin-2-yl) hydrazineylidene)-5-ethyl-3-methyl-2,3,4,5,6,7,8,9-octahydro-1H-2,6-methanoazecino [5,4-b]indole-14-carboxylate] the IC50 (SK-BR-3; SK-BR-3, BRCA1 loss of heterozigoty, 48 hours) was 5.7 ± 1.4 µM, the IC50 (SK-BR-3; SK-BR-3, BRCA1 loss of heterozygosity, 48 hours (second Table 2)) was 5.7 µM and the IC50 (HeLa) was 5.8 ± 0.8 µM. The “mammosphere growth in three-day old spheroids” value (HCC1937 mammospheres; 6 μM and 12 μM, up to 11 days) was “markedly reduced”, the “mammosphere (spheroids) formation” value (HCC1937 mammospheres; 6 μM, added upon seeding of HCC1937 cells, 72 hours) was “complete abolishment of spheroids formation” and the “mammosphere integrity in three-day old spheroids” value (HCC1937 mammospheres; 12 μM, up to 11 days) was “triggering mammosphere disintegration”. The IC50 (MCF-7; MCF-7, BRCA1 wild-type, 48 hours (second Table 2)) was 12 µM, the IC50 (MCF-7; MCF-7, wild-type BRCA1/2, 48 hours) was 12 ± 1.5 µM and the IC50 (NCI-H460) was 15.5 ± 1.5 µM. For the same compound, the IC50 [1] was 4.5 µM, the IC50 (T47D; BRCA1 wild-type, 48 hours (second Table 2)) was 11.5 µM and the IC50 (T47D; wild-type BRCA1/2, 48 hours) was 11.5 ± 3 µM. For the same compound, the IC50 [2] was 2.68 to 15.1 µM, the IC50 (A375) was 15.5 ± 0.5 µM and the body weight [3] was “no significant variation”. The “organs weight (spleen, liver, heart and kidneys)” value [3] was “no significant variation”, the IC50 (SKOV-3; SKOV-3, wild-type BRCA1/2, 48 hours) was 8.9 ± 2.5 µM and the IC50 (SKOV-3; Skov-3, BRCA1 wild-type, 48 hours (second Table 2)) was 8.9 µM. The IC50 [4] was 2.7 ± 0.6 µM, the ROS production [5] was “increases ROS production” and the “apoptotic cell death (Annexin-V-positive cells)” value [6] was “significant increase in apoptotic cell death”. For the same compound, the “cell cycle arrest phase” value [7] was “cell cycle arrest at G0/G1-”, the IC50 (MiaPACA) was 4.5 ± 0.4 µM and the IC50 (Vcap) was 11.7 ± 3.4 µM. The IC50 (SK-MEL-5) was 5.65 ± 0.95 µM, the IC50 (MDA-MB-231; MDA-MB-231, BRCA1 loss of heterozigoty, 48 hours) was 5 ± 1.4 µM and the IC50 (MDA-MB-231; MDA-MB-231, BRCA1 loss of heterozygosity, 48 hours (second Table 2)) was 5 µM. It also gave an IC50 [8] of 4.6 to 13.9 µM.

Reference: patent US20250345317A1, “New pharmaceutical compounds, methods and uses thereof” (BBIT-THERAPEUTICS, LDA., priority 2020, published 2025)
